Results as given in patent publication US8003660B2, “Modulators of muscarinic receptors” (Vertex Pharmaceuticals Incorporated, priority 2006, dated 2011).

Key:
Assay type in all cases: cell-based
M1 muscarinic receptor = molecular target: T1, M1 muscarinic receptor (Homo sapiens, UniProt P11229); assay: Functional mobilization of intracellular calcium (FLIPR) in CHO cells expressing M1; conditions: for EC50: CHO cells expressing M1, FLIPR calcium; for Emax: CHO, 100% = maximum response obtained with the Carbachol control, read-out: M1 Efficacy
T1 construct: expressed in transfected cells; host or cells: CHO (M1-CHO)
T1 sequence (P11229 1-460): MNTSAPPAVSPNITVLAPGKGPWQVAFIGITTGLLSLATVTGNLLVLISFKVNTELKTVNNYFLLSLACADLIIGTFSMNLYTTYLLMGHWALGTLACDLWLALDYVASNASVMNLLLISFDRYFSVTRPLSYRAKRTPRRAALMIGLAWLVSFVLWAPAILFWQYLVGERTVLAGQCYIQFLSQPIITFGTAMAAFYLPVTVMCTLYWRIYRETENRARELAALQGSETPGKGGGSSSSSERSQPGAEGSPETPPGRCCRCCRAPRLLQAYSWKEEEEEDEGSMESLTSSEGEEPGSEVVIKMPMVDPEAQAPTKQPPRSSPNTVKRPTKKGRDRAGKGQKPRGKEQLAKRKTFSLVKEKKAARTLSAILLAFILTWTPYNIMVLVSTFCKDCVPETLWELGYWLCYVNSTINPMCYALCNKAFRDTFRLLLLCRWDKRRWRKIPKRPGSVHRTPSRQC
Summary of the method: (§1)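 Recombinant CHO cells loaded with Fluo-3 AM or Calcium 3 dye in pH 7.4 buffer containing 1 mM probenecid, with 0.5% final DMSO. For agonism, compound is added directly. For inhibition, it is preincubated 15 min, or co-applied, before carbachol at EC80. FLIPR fluorescence (ex 488, em 540 nm) is recorded for 60 s.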

M2 muscarinic receptor = molecular target: T2, M2 muscarinic receptor (Homo sapiens, UniProt P08172); assay: Functional mobilization of intracellular calcium (FLIPR) in CHO cells expressing M2; conditions: for EC50: CHO cells expressing M2, FLIPR calcium; for Emax: CHO, 100% = maximum response obtained with the Carbachol control, read-out: M2 Efficacy
T2 construct: expressed in transfected cells; host or cells: CHO (M2-CHO)
T2 sequence (P08172 1-466): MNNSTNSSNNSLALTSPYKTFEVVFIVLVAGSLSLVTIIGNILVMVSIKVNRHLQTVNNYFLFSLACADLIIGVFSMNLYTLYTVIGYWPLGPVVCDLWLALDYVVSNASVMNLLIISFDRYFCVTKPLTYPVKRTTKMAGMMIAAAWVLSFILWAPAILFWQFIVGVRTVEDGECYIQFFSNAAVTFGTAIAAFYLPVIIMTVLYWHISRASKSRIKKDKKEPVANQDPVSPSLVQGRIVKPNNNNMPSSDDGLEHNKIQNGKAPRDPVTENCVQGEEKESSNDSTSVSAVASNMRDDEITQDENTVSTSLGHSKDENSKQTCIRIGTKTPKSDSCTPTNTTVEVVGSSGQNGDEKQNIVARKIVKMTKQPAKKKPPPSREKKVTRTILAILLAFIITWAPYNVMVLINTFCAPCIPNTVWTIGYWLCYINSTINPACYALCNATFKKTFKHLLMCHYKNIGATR
Summary of the method: as §1

M3 muscarinic receptor = molecular target: T3, M3 muscarinic receptor (Homo sapiens, UniProt P20309); assay: Functional mobilization of intracellular calcium (FLIPR) in CHO cells expressing M3; conditions: for EC50: CHO cells expressing M3, FLIPR calcium; for Emax: CHO, 100% = maximum response obtained with the Carbachol control, read-out: M3 Efficacy
T3 construct: expressed in transfected cells; host or cells: CHO (M3-CHO)
Summary of the method: as §1

M4 muscarinic receptor = molecular target: T4, M4 muscarinic receptor (Homo sapiens, UniProt P08173); assay: Functional mobilization of intracellular calcium (FLIPR) in CHO cells expressing M4; conditions: for EC50: CHO cells expressing M4, FLIPR calcium; for Emax: CHO, 100% = maximum response obtained with the Carbachol control, read-out: M4 Efficacy
T4 construct: expressed in transfected cells; host or cells: CHO (M4-CHO)
T4 sequence (P08173 1-479): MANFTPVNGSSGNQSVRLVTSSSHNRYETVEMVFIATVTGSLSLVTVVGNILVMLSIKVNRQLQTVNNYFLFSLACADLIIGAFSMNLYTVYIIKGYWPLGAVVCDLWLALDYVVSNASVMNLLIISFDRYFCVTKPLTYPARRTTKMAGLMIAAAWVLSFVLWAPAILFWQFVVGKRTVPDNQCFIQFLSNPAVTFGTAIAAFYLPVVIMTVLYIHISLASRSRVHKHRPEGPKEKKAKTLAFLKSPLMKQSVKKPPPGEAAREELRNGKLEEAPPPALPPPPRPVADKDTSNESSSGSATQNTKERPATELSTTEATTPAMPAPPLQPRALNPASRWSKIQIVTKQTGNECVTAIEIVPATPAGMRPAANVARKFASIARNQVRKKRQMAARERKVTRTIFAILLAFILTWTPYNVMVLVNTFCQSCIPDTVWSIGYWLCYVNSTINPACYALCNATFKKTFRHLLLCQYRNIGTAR
Summary of the method: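 Calcium flux is read on FLIPR over 60 sec at 488/540 nm in muscarinic-receptor CHO lines. Antagonist mode adds carbachol at EC80 after 15 min compound preincubation or with simultaneous co-application. Agonist mode adds compound alone. Cells carry Fluo-3 or Calcium 3 dye in probenecid-containing pH 7.4 buffer, 0.5% DMSO final.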

T3 sequence (P20309 whole entry): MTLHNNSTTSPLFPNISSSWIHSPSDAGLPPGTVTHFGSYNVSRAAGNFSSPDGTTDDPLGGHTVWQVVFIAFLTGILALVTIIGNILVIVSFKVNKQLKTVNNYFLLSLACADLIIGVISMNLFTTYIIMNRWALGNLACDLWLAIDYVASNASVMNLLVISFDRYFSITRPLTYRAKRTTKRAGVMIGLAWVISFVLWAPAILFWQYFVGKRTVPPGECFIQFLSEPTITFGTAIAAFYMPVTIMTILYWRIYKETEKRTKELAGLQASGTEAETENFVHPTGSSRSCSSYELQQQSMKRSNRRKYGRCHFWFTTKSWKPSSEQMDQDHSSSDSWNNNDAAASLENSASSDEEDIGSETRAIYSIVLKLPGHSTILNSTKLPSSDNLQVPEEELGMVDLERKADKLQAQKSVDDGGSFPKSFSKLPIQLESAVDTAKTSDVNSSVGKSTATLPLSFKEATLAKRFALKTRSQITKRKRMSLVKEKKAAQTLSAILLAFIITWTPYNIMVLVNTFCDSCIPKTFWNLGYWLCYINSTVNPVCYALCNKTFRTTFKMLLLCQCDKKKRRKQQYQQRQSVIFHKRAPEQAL

Compound | EC50 (M1 muscarinic receptor) [µM] | Emax (M1 muscarinic receptor) [%] | EC50 (M2 muscarinic receptor) [µM] | Emax (M2 muscarinic receptor) [%] | EC50 (M3 muscarinic receptor) [µM] | Emax (M3 muscarinic receptor) [%] | EC50 (M4 muscarinic receptor) [µM] | Emax (M4 muscarinic receptor) [%]
C[C@H](C(=O)N[C@H]1CCC2(CCN(CCC(C)(C)C)CC2)c2ccccc21)N1CCCCC1=O [compound 38] | < 2 | 25 to 100 | > 5 | < 25 | > 5 | < 25 | < 2 | 25 to 100
CCN(C(=O)C1CCCO1)[C@H]1CCC2(CCN(CCC(C)(C)C)CC2)c2ccccc21 (stereo partly shown) [compound 39] | > 5 | 25 to 100 | > 5 | < 25 | > 5 | < 25 | < 2 | 25 to 100
Cc1cc(C(=O)N[C@@H]2CCC3(CCN(CCC(C)(C)C)CC3)c3cc(F)ccc32)nn1C [compound 40] | < 2 | 25 to 100 | < 2 | 25 to 100 | > 5 | < 25 | < 2 | 25 to 100
CC(=O)N1CCCCC1C(=O)N[C@H]1CCC2(CCN(CCC(C)(C)C)CC2)c2ccccc21 (stereo partly shown) [compound 41] | < 2 | 25 to 100 | > 5 | < 25 | > 5 | < 25 | < 2 | 25 to 100
CCN(C(=O)CC(C)(C)O)[C@H]1CCC2(CCN(CCC(C)(C)C)CC2)c2ccccc21 [compound 42] | 2 to 5 | 25 to 100 | > 5 | < 25 | > 5 | < 25 | < 2 | 25 to 100
CC#CCN(C(C)=O)[C@H]1CCC2(CCN(CCC(C)(C)C)CC2)c2ccccc21 [compound 43] | < 2 | 25 to 100 | < 2 | 25 to 100 | > 5 | < 25 | < 2 | 25 to 100
CCN(C(=O)C1CCC(=O)C1)[C@H]1CCC2(CCN(CCC(C)(C)C)CC2)c2ccccc21 (stereo partly shown) [compound 44] | 2 to 5 | 25 to 100 | > 5 | < 25 | > 5 | < 25 | < 2 | 25 to 100
CC(=O)N[C@H]1CCC2(CCN(CCC(C)CC(C)(C)C)CC2)c2ccccc21 (stereo partly shown) [compound 45] | < 2 | 25 to 100 | 2 to 5 | < 25 | > 5 | 25 to 100 | > 5 | < 25
CC(=O)N[C@H](C)C(=O)N[C@H]1CCC2(CCN(CCC(C)(C)C)CC2)c2cc(F)ccc21 [compound 46] | < 2 | 25 to 100 | < 2 | 25 to 100 | > 5 | < 25 | < 2 | 25 to 100
CC(=O)N(C(C)C)[C@H]1CCC2(CCN(CCC(C)C)CC2)c2ccccc21 [compound 47] | 2 to 5 | 25 to 100 | > 5 | < 25 | > 5 | < 25 | 2 to 5 | 25 to 100
CCCC(CCC)N1CCC2(CC[C@H](NC(=O)C3CC3)c3ccccc32)CC1 [compound 48] | > 5 | < 25 | > 5 | < 25 | > 5 | < 25 | > 5 | < 25
CSC(C)CCN1CCC2(CC[C@H](NC(C)=O)c3ccccc32)CC1 (stereo partly shown) [compound 49] | 2 to 5 | 25 to 100 | > 5 | < 25 | > 5 | < 25 | < 2 | 25 to 100
COC(=O)CN(C(C)=O)[C@H]1CCC2(CCN(CCC(C)(C)C)CC2)c2ccccc21 [compound 50] | > 5 | 25 to 100 | > 5 | < 25 | > 5 | < 25 | < 2 | 25 to 100
CN(C)C(=O)N(C)[C@H]1CCC2(CCN(CCC(C)(C)C)CC2)c2ccccc21 [compound 51] | < 2 | 25 to 100 | > 5 | < 25 | > 5 | < 25 | < 2 | 25 to 100
C[C@H](C(=O)N[C@H]1CCC2(CCN(CCC(C)(C)C)CC2)c2cc(F)ccc21)N1CCCC1=O [compound 52] | < 2 | 25 to 100 | < 2 | < 25 | > 5 | < 25 | < 2 | 25 to 100
CC(CC(C)(C)C)N1CCC2(CC[C@H](NC(=O)N(C)C)c3ccccc32)CC1 (stereo partly shown) [compound 53] | > 5 | < 25 | > 5 | < 25 | > 5 | < 25 | < 2 | 25 to 100
CCN(C(=O)CCC(C)=O)[C@H]1CCC2(CCN(CCC(C)(C)C)CC2)c2ccccc21 [compound 54] | < 2 | 25 to 100 | > 5 | < 25 | > 5 | < 25 | < 2 | 25 to 100
CC(C)(C)CCN1CCC2(CC[C@@H](NC(=O)C3CCCN(C(=O)C4CC4)C3)c3ccccc32)CC1 (stereo partly shown) [compound 55] | 2 to 5 | < 25 | < 2 | < 25 | > 5 | < 25 | < 2 | 25 to 100
CC[C@@H](C)CN1CCC2(CC[C@H](NC(C)=O)c3ccccc32)CC1 [compound 56] | < 2 | 25 to 100 | < 2 | 25 to 100 | > 5 | < 25 | < 2 | 25 to 100
CC(C)(C)CCN1CCC2(CC[C@H](N3CCCCC3=O)c3ccccc32)CC1 [compound 57] | 2 to 5 | 25 to 100 | > 5 | < 25 | > 5 | < 25 | < 2 | 25 to 100
Cn1cc(C(=O)N[C@H]2CCC3(CCN(CCC(C)(C)C)CC3)c3ccccc32)cn1 [compound 58] | < 2 | 25 to 100 | < 2 | 25 to 100 | > 5 | < 25 | < 2 | 25 to 100
CC(=O)N1CCCC(C(=O)N[C@H]2CCC3(CCN(CCC(C)(C)C)CC3)c3cc(F)ccc32)C1 (stereo partly shown) [compound 59] | < 2 | 25 to 100 | 2 to 5 | < 25 | > 5 | < 25 | < 2 | 25 to 100
CC(=O)N1CCCC1C(=O)N[C@H]1CCC2(CCN(CCC(C)(C)C)CC2)c2ccccc21 (stereo partly shown) [compound 60] | < 2 | 25 to 100 | > 5 | < 25 | > 5 | < 25 | < 2 | 25 to 100
